Source: patent US20100298141A1, “SUBSTITUTED PYRIDINE N-OXIDE HERBICIDES” (E. I. DU PONT DE NEMOURS AND COMPANY, priority 2007, published 2010)

Tests used:
[1] = system: Italian ryegrass (LOLMU); assay: Test I preemergence mixtures of compound 2 with crop safeners; type: in vivo, Lolium multiflorum; conditions: alone
From the text: (§1) Seeds of test plants consisting of winter wheat (TRZAW, Triticum aestivum), corn (ZEAMD, Zea mays cv. ‘Pioneer 33G26’), wild oat (AVEFA, Avena fatua), and Italian ryegrass (LOLMU, Lolium multiflorum) were planted into a blend of loam soil and sand and treated preemergence with a directed soil spray using test chemicals formulated in a non-phytotoxic solvent mixture that included a surfactant. Seeds of small-seeded species were planted about 1 cm deep; larger seeds were planted about 2.5 cm deep. […] Balanced fertilizer was applied through the watering system. Treatments consisted of Compound 2 and the above mentioned safeners alone and in combination using a spray volume of 457 L/ha. Each treatment was replicated four times. Treated plants and controls were maintained in a greenhouse for 14 to 21 days, after which time all species were compared to controls and visually evaluated. […] A dash (-) response means no test result. Colby's Equation was used to determine the herbicidal effects expected from the mixtures. Colby's Equation (Colby, S. […] Pa+b=Pa+Pb−(PaPb/100) wherein • Pa+b is the percentage effect of the mixture expected from additive contribution of the individual components, • Pa is the observed percentage effect of the first active ingredient at the same use rate as in the mixture, and • Pb is the observed percentage effect of the second active ingredient at the same use rate as in the mixture.

[2] = system: corn (ZEAMD); assay: Test J preemergence mixtures of Compound 2 with crop safeners; type: in vivo, Zea mays cv. ‘Pioneer 33G26’
From the text: (§2) Seeds of test plants consisting of winter wheat (TRZAW, Triticum aestivum) and corn (ZEAMD, Zea mays cv. ‘Pioneer 33G26’) were planted into a blend of loam soil and sand and treated preemergence with a directed soil spray using test chemicals formulated in a non-phytotoxic solvent mixture that included a surfactant. […] Balanced fertilizer was applied through the watering system. Treatments consisted of Compound 2 and the above mentioned safeners alone and in combination using a spray volume of 457 L/ha. Each treatment was replicated four times. […] A dash (-) response means no test result. Colby's Equation was used to determine the herbicidal effects expected from the mixtures. Colby's Equation (Colby, S. […] wherein • Pa+b is the percentage effect of the mixture expected from additive contribution of the individual components, • Pa is the observed percentage effect of the first active ingredient at the same use rate as in the mixture, and Pb is the observed percentage effect of the second active ingredient at the same use rate as in the mixture.

[3] = system: corn (ZEAMD); assay: Test H preemergence mixtures of compound 2 with crop safeners; type: in vivo, Zea mays cv. ‘Pioneer 33G26’; set-up: key to ZEAMD Obsd. (observed effect): observed % effect, visually evaluated vs controls; conditions: Test H, alone
From the text: (§3) Seeds of test plants consisting of winter wheat (TRZAW, Triticum aestivum), corn (ZEAMD, Zea mays cv. ‘Pioneer 33G26’), giant foxtail (SETFA, Setaria faberi), and Italian ryegrass (LOLMU, Lolium multiflorum) were planted into a blend of loam soil and sand and treated preemergence with a directed soil spray using test chemicals formulated in a non-phytotoxic solvent mixture that included a surfactant. Seeds of small-seeded species were planted about 1 cm deep; larger seeds were planted about 2.5 cm deep. […] Balanced fertilizer was applied through the watering system. Treatments consisted of Compound 2 and the above mentioned safeners alone and in combination using a spray volume of 457 L/ha. Each treatment was replicated four times. Treated plants and controls were maintained in a greenhouse for 14 to 21 days, after which time all species were compared to controls and visually evaluated. […] A dash (-) response means no test result. Colby's Equation was used to determine the herbicidal effects expected from the mixtures. Colby's Equation (Colby, S. […] wherein • Pa+b is the percentage effect of the mixture expected from additive contribution of the individual components, • Pa is the observed percentage effect of the first active ingredient at the same use rate as in the mixture, and • Pb is the observed percentage effect of the second active ingredient at the same use rate as in the mixture.

[4] = system: winter wheat (TRZAW); assay: Test I preemergence mixtures of compound 2 with crop safeners; type: in vivo, Triticum aestivum; conditions: alone
From the text: as §1

[5] = system: Italian ryegrass (LOLMU); assay: Test H preemergence mixtures of compound 2 with crop safeners; type: in vivo, Lolium multiflorum; set-up: key to LOLMU Obsd. (observed effect): observed % effect, visually evaluated vs controls; conditions: Test H, alone
From the text: as §3

[6] = system: winter wheat (TRZAW); assay: Test J preemergence mixtures of Compound 2 with crop safeners; type: in vivo, Triticum aestivum
From the text: as §2

[7] = system: corn (ZEAMD); assay: Test I preemergence mixtures of compound 2 with crop safeners; type: in vivo, Zea mays cv. ‘Pioneer 33G26’; conditions: alone
From the text: as §1

[8] = system: wild oat (AVEFA); assay: as above; type: in vivo, Avena fatua; conditions: alone
From the text: as §1

[9] = system: winter wheat (TRZAW); assay: Test H preemergence mixtures of compound 2 with crop safeners; type: in vivo, Triticum aestivum; set-up: key to TRZAW Obsd. (observed effect): observed % effect, visually evaluated vs controls; conditions: Test H, alone
From the text: as §3

[10] = system: giant foxtail (SETFA); assay: as above; type: in vivo, Setaria faberi; set-up: key to SETFA Obsd. (observed effect): observed % effect, visually evaluated vs controls; conditions: Test H, alone
From the text: as §3

Compound: CCOC(=O)C1=NOC(c2ccccc2)(c2ccccc2)C1 [isoxadifen-ethyl]
- LOLMU Obsd. (observed effect) ([1]; 4 g a.i./ha): 0
- LOLMU Obsd. (observed effect) ([1]; 8 g a.i./ha): 0
- Observed effect (Obsd.), ZEAMD ([2]; safener alone at 8 g a.i./ha): 0%
- Observed effect (Obsd.), ZEAMD ([2]; safener alone at 31 g a.i./ha): 0%
- Observed effect (Obsd.), ZEAMD ([2]; safener alone at 500 g a.i./ha): 0%
- Observed effect (Obsd.), ZEAMD ([2]; single active ingredient alone at 125 g a.i./ha): 0%
- ZEAMD Obsd. (observed effect) ([3]; 8 g a.i./ha): 0
- ZEAMD Obsd. (observed effect) ([3]; 16 g a.i./ha): 0
- ZEAMD Obsd. (observed effect) ([3]; 31 g a.i./ha): 0
- TRZAW Obsd. (observed effect) ([4]; 4 g a.i./ha): 0
- TRZAW Obsd. (observed effect) ([4]; 8 g a.i./ha): 0
- LOLMU Obsd. (observed effect) ([5]; 8 g a.i./ha): 0
- LOLMU Obsd. (observed effect) ([5]; 16 g a.i./ha): 0
- LOLMU Obsd. (observed effect) ([5]; 31 g a.i./ha): 0
- Observed effect (Obsd.), TRZAW ([6]; safener alone at 8 g a.i./ha): 0%
- Observed effect (Obsd.), TRZAW ([6]; safener alone at 31 g a.i./ha): 0%
- Observed effect (Obsd.), TRZAW ([6]; safener alone at 500 g a.i./ha): 0%
- ZEAMD Obsd. (observed effect) ([7]; 4 g a.i./ha): 0
- ZEAMD Obsd. (observed effect) ([7]; 8 g a.i./ha): 0
- AVEFA Obsd. (observed effect) ([8]; 4 g a.i./ha): 0
- AVEFA Obsd. (observed effect) ([8]; 8 g a.i./ha): 0
- TRZAW Obsd. (observed effect) ([9]; 8 g a.i./ha): 0
- TRZAW Obsd. (observed effect) ([9]; 16 g a.i./ha): 0
- TRZAW Obsd. (observed effect) ([9]; 31 g a.i./ha): 0
- SETFA Obsd. (observed effect) ([10]; 8 g a.i./ha): 0
- SETFA Obsd. (observed effect) ([10]; 16 g a.i./ha): 0
- SETFA Obsd. (observed effect) ([10]; 31 g a.i./ha): 3
